Experimental data taken from patent US20100298141A1, “SUBSTITUTED PYRIDINE N-OXIDE HERBICIDES” (E. I. DU PONT DE NEMOURS AND COMPANY, priority 2007, published 2010).

How the values were obtained:
[1] = test system: barnyardgrass; test: Test A pre-/postemergence greenhouse test; format: in vivo, Echinochloa crus-galli; conditions: for Plant response rating, Barnyardgrass: 0 to 100 scale where 0 is no effect and 100 is complete control; for Barnyardgrass plant response rating: 0 to 100 scale
Outline: (§1)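 Untreated controls served as the reference for visual injury ratings taken about ten days after spraying. The non-phytotoxic solvent/surfactant formulation was applied preemergence to seeded loam and sand and postemergence to plants two to ten cm high.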

[2] = test system: crabgrass; test: Test A pre-/postemergence greenhouse test; format: in vivo, Digitaria sanguinalis; conditions: for Plant response rating, Crabgrass, Large: 0 to 100 scale where 0 is no effect and 100 is complete control; for Crabgrass, Large plant response rating: 0 to 100 scale
Outline: as §1

[3] = test system: giant foxtail; test: Test A pre-/postemergence greenhouse test; format: in vivo, Setaria faberi; conditions: for Plant response rating, Foxtail, Giant: 0 to 100 scale where 0 is no effect and 100 is complete control; for Foxtail, Giant plant response rating: 0 to 100 scale
Outline: as §1

[4] = test system: morningglory; test: Test A pre-/postemergence greenhouse test; format: in vivo, Ipomoea spp.; conditions: for Plant response rating, Morningglory: 0 to 100 scale where 0 is no effect and 100 is complete control; for Morningglory plant response rating: 0 to 100 scale
Outline: as §1

[5] = test system: redroot pigweed; test: Test A pre-/postemergence greenhouse test; format: in vivo, Amaranthus retroflexus; conditions: for Plant response rating, Pigweed: 0 to 100 scale where 0 is no effect and 100 is complete control; for Pigweed plant response rating: 0 to 100 scale
Outline: as §1

[6] = test system: velvetleaf; test: Test A pre-/postemergence greenhouse test; format: in vivo, Abutilon theophrasti; conditions: for Plant response rating, Velvetleaf: 0 to 100 scale where 0 is no effect and 100 is complete control; for Velvetleaf plant response rating: 0 to 100 scale
Outline: as §1

[7] = test system: wheat; test: Test A pre-/postemergence greenhouse test; format: in vivo, Triticum aestivum; conditions: for Plant response rating, Wheat: 0 to 100 scale where 0 is no effect and 100 is complete control; for Wheat plant response rating: 0 to 100 scale
Outline: as §1

[8] = test system: corn; test: Test A pre-/postemergence greenhouse test; format: in vivo, Zea mays; conditions: for Plant response rating, Corn: 0 to 100 scale where 0 is no effect and 100 is complete control; for Corn plant response rating: 0 to 100 scale
Outline: as §1

[9] = test system: rice; test: Test C flooded paddy test; format: in vivo, Oryza sativa; conditions: Flood
Outline: (§2)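 Compound was added to standing water 3 cm above soil, flood maintained, and plants held in a greenhouse before visual scoring against controls at 13 to 15 days.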

[10] = test system: umbrella sedge; test: Test C flooded paddy test; format: in vivo, Cyperus difformis; conditions: Flood
Outline: as §2

[11] = test system: duck salad; test: Test C flooded paddy test; format: in vivo, Heteranthera limosa; conditions: Flood
Outline: as §2

[12] = test system: barnyardgrass; test: Test C flooded paddy test; format: in vivo, Echinochloa crus-galli; conditions: Flood
Outline: as §2

[13] = Postemergence, 500 g ai/ha, 0 is no effect, 100 is complete control
[14] = Preemergence, 125 g ai/ha, 0 no effect, 100 complete control
[15] = 31 g ai/ha, scale 0 to 100 (0 no effect, 100 complete control)
[16] = 62 g ai/ha, scale 0 to 100, 0 no effect, 100 complete control, 13 to 15 days
[17] = 125 g ai/ha, scale 0 to 100, 0 no effect, 100 complete control, 13 to 15 days
[18] = 250 g ai/ha, scale 0 to 100, 0 no effect, 100 complete control, 13 to 15 days

CC(c1c(C(F)(F)F)nn(CC(F)(F)F)c1Cl)S(=O)(=O)c1ccc(Cl)c[n+]1[O-] (centres unmarked) [Compound 55]
0: Plant response rating, Morningglory ([4]; Postemergence, 125 g ai/ha) | Morningglory plant response rating [4, 14] | Plant response rating, Pigweed ([5]; Postemergence, 125 g ai/ha) | Plant response rating, Velvetleaf ([6]; Postemergence, 125 g ai/ha) | Velvetleaf plant response rating [6, 14] | Plant response rating, Velvetleaf ([6]; Preemergence, 500 g ai/ha) | Plant response rating, Wheat ([7]; Postemergence, 125 g ai/ha) | Wheat plant response rating [7, 13] | Wheat plant response rating [7, 14] | Plant response rating, Wheat ([7]; Preemergence, 500 g ai/ha) | Plant response rating, Corn ([8]; Postemergence, 125 g ai/ha) | Corn plant response rating [8, 13] | Corn plant response rating [8, 14] | Plant response rating, Corn ([8]; Preemergence, 500 g ai/ha) | Plant response rating, Rice [9, 15] | Plant response rating, Rice [9, 16] | Plant response rating, Rice [9, 17] | Plant response rating, Sedge, Umbrella [10, 15] | Plant response rating, Ducksalad [11, 15] | Plant response rating, Barnyardgrass [12, 15] | Plant response rating, Barnyardgrass [12, 16] | Plant response rating, Barnyardgrass [12, 17] | Plant response rating, Barnyardgrass [12, 18]
75: Plant response rating, Sedge, Umbrella [10, 18]
30: Barnyardgrass plant response rating [1, 14] | Pigweed plant response rating [5, 13] | Velvetleaf plant response rating [6, 13]
90: Plant response rating, Crabgrass, Large ([2]; Preemergence, 500 g ai/ha) | Plant response rating, Foxtail, Giant ([3]; Preemergence, 500 g ai/ha) | Pigweed plant response rating [5, 14]
60: Foxtail, Giant plant response rating [3, 14] | Plant response rating, Ducksalad [11, 17] | Plant response rating, Ducksalad [11, 18]
70: Plant response rating, Foxtail, Giant ([3]; Postemergence, 125 g ai/ha)
40: Plant response rating, Barnyardgrass ([1]; Postemergence, 125 g ai/ha) | Plant response rating, Ducksalad [11, 16]
80: Barnyardgrass plant response rating [1, 13] | Crabgrass, Large plant response rating [2, 13] | Crabgrass, Large plant response rating [2, 14] | Foxtail, Giant plant response rating [3, 13]
100: Plant response rating, Barnyardgrass ([1]; Preemergence, 500 g ai/ha) | Plant response rating, Pigweed ([5]; Preemergence, 500 g ai/ha)
65: Plant response rating, Sedge, Umbrella [10, 17]
50: Plant response rating, Crabgrass, Large ([2]; Postemergence, 125 g ai/ha) | Morningglory plant response rating [4, 13] | Plant response rating, Morningglory ([4]; Preemergence, 500 g ai/ha)
20: Plant response rating, Rice [9, 18]

O=S(=O)(Cc1c(C(F)(F)F)nn(CC(F)(F)F)c1Cl)c1cccc[n+]1[O-] [Compound 44]
80: Barnyardgrass plant response rating [1, 13] | Crabgrass, Large plant response rating [2, 13] | Foxtail, Giant plant response rating [3, 13]
0: Morningglory plant response rating [4, 14] | Plant response rating, Pigweed ([5]; Postemergence, 125 g ai/ha) | Pigweed plant response rating [5, 14] | Plant response rating, Velvetleaf ([6]; Postemergence, 125 g ai/ha) | Velvetleaf plant response rating [6, 14] | Plant response rating, Wheat ([7]; Postemergence, 125 g ai/ha) | Wheat plant response rating [7, 13] | Wheat plant response rating [7, 14] | Plant response rating, Corn ([8]; Postemergence, 125 g ai/ha) | Corn plant response rating [8, 13] | Corn plant response rating [8, 14] | Plant response rating, Corn ([8]; Preemergence, 500 g ai/ha) | Plant response rating, Rice [9, 16] | Plant response rating, Ducksalad [11, 16] | Plant response rating, Barnyardgrass [12, 16] | Plant response rating, Barnyardgrass [12, 18]
20: Plant response rating, Wheat ([7]; Preemergence, 500 g ai/ha)
100: Plant response rating, Crabgrass, Large ([2]; Preemergence, 500 g ai/ha) | Plant response rating, Foxtail, Giant ([3]; Preemergence, 500 g ai/ha) | Plant response rating, Pigweed ([5]; Preemergence, 500 g ai/ha)
90: Plant response rating, Barnyardgrass ([1]; Preemergence, 500 g ai/ha) | Foxtail, Giant plant response rating [3, 14]
10: Plant response rating, Morningglory ([4]; Postemergence, 125 g ai/ha) | Pigweed plant response rating [5, 13]
60: Crabgrass, Large plant response rating [2, 14] | Plant response rating, Morningglory ([4]; Preemergence, 500 g ai/ha)
70: Plant response rating, Barnyardgrass ([1]; Postemergence, 125 g ai/ha) | Barnyardgrass plant response rating [1, 14] | Plant response rating, Crabgrass, Large ([2]; Postemergence, 125 g ai/ha) | Plant response rating, Foxtail, Giant ([3]; Postemergence, 125 g ai/ha)
50: Plant response rating, Sedge, Umbrella [10, 18]
40: Morningglory plant response rating [4, 13] | Plant response rating, Ducksalad [11, 18]
30: Velvetleaf plant response rating [6, 13] | Plant response rating, Velvetleaf ([6]; Preemergence, 500 g ai/ha) | Plant response rating, Rice [9, 18]
